According to PubChem BioAssay AID651816 (Broad Institute, 2012):
Values joined by “and” are separate entries in the source; they are usually repeats but may differ in a detail not shown here. Equal values may be shown once. Active and inactive are the calls of the source. The rule behind the calls is not given here.

Key:
[1] = Cholera quorum light production inducers, absence of autoinducers, BH1578 strain, confirmatory dose response (AID 651816); details: V. cholerae BH1578 luxCDABE luminescence, 6 h; at 80 µM (top of the series)
[2] = test system: V. cholerae BH1578 luxCDABE luminescence, 6 h; assay: as above

| SMILES | activation [1] | AC40 [2] |
| --- | --- | --- |
| c1ccc(-n2nnnc2NCc2ccc(N3CCCC3)cc2)cc1 | 0.051% (inactive) |  |
| CCCn1nnnc1NCc1ccc(C(C)C)cc1 |  | 793 nM |
| c1ccc(Cn2nnc(NCc3ccc(N4CCCC4)cc3)n2)cc1 | 0.04% (inactive) |  |
| O=C(Cc1ccc(-c2ccccc2)cc1)NC1CCCC1 |  | 409 nM and 756 nM |
| CCc1ccccc1NCc1ccc(N2CCCC2)cc1 | 0.047% (inactive) |  |
| CCn1nccc1/N=C/c1ccc(N2CCCC2)cc1 | 0.02% (inactive) |  |
| O=C(Cc1ccc(-c2ccccc2)cc1)NC1CCCCC1 | 7.99% (inactive) |  |
| CCn1nnnc1NCc1ccc(N2CCCC2)cc1 |  | 20.9 nM |
| CCn1nnnc1NCc1ccc(C(C)C)cc1 |  | 89.1 nM and 143 nM |
| CC(C)NC(=O)Cc1ccc(-c2ccccc2)cc1 |  | 6210 nM |
| O=C(Cc1ccccc1F)NC1CCCC1 | 0.028% (inactive) |  |
| O=C(Cc1ccc(-c2ccccc2)cc1)NC1CCC1 |  | 510 nM |
| c1ccc(Cn2nnnc2NCc2ccc(N3CCCC3)cc2)cc1 | 0.055% (inactive) |  |
| CCn1nnnc1NCc1cccc(OC)c1 | 3.31% (inactive) |  |
| O=C(Cc1cccc(OC(F)(F)F)c1)NC1CCCC1 | 0.099% (inactive) |  |
| CCC(C)NC(=O)Cc1ccc(-c2ccccc2)cc1 (stereo not given) |  | 4820 nM |
| CCC(CC)NC(=O)Cc1ccc(-c2ccccc2)cc1 |  | 5370 nM |
| CCCCn1nnnc1NCc1ccc(N2CCCC2)cc1 |  | 5660 nM |
| O=C(Cc1ccccc1Cl)NC1CCCC1 | -0.009% (inactive) |  |
| CCn1nccc1NCc1ccc(N2CCCC2)cc1 | 0.056% (inactive) |  |

| SMILES | activation [1] | AC40 [2] |
| --- | --- | --- |
| O=C(Cc1ccccc1OC(F)(F)F)NC1CCCC1 | -0.008% (inactive) |  |
| CCn1nnnc1NCc1ccccc1N1CCCC1 | -0.011% (inactive) |  |
| CCn1nnnc1NCc1ccc(N2CCCCC2)cc1 |  | 121 nM |
| COc1ccc(CC(=O)NC2CCCC2)cc1 | 0.353% (inactive) |  |
| CCn1nnnc1CCc1ccc(N2CCCC2)cc1 |  | 1680 nM |
| Cc1ccccc1CC(=O)NC1CCCC1 | 0.039% (inactive) |  |
| Cc1ccc(Cn2nnnc2NCc2ccc(N3CCCC3)cc2)cc1 | 0.022% (inactive) |  |
| CCn1nnnc1NCc1cccc(N2CCCC2)c1 |  | 504 nM |
| Fc1ccc(Cn2nnnc2NCc2ccc(N3CCCC3)cc2)cc1 | 0.053% (inactive) |  |
| O=C(Cc1cccc(F)c1)NC1CCCC1 | 0.665% (inactive) |  |
| CCn1nnc(CCc2ccc(N3CCCC3)cc2)n1 | 0.033% (inactive) |  |
| O=C(NCc1ccc(-c2ccccc2)cc1)C1CCCC1 | 0.19% (inactive) |  |
| O=C(Cc1ccccc1C(F)(F)F)NC1CCCC1 | -0.032% (inactive) |  |
| CS(=O)(=O)c1ccc(CC(=O)NC2CCCC2)cc1 | -0.008% (inactive) |  |
| CC(C)c1ccc(CNc2nnnn2C)cc1 |  | 3260 nM |
| Cn1nnnc1NCc1ccc(N2CCCC2)cc1 |  | 956 nM |
| CCCn1nnnc1NCc1ccccc1Cl | -0.011% (inactive) |  |
| O=C(Cc1ccc(-c2ccccc2)cc1)NC1CCOCC1 |  | 2890 nM |
| CCn1nnc(NCc2ccc(C)cc2)n1 | 0.015% (inactive) |  |
| CCCn1nnnc1NCc1ccc(N2CCCC2)cc1 |  | 60.8 nM |
